Laboratory results: US10308686B2, “Gamma-AApeptides with potent and broad-spectrum antimicrobial activity” (priority 2012, dated 2019)
Converted amounts (≈) assume the structure as drawn. Like-named read-outs stand apart in the source and are kept apart here. No end group written: not given here.

Legend:
[1] = test system: human red blood cells (hRBC's); assay: Hemolysis assay; format: cell-based; settings: for Hemolysis HC10 / Hemolysis HC50: red cells of human
Protocol: Freshly drawn human red blood cells (hRBC's) with additive K2 EDTA (spray-dried) were washed with PBS buffer several times and centrifuged at 1000 g for 10 min until a clear supernatant was observed. The hRBC's were resuspended in 1×PBS to get a 5% v/v suspension. Two-fold serial dilutions of γ-AApeptides dissolved in 1×PBS from 250 μg/ml through 1.6 μg/ml were added to a sterile 96-well plate to make up a total volume of 50 μL in each well. Then 50 μL of 5% v/v hRBC solution was added to make up a total volume of 100 μL in each well. The 0% hemolysis point and 100% hemolysis point were determined in 1×PBS and 0.2% Triton-X-100, respectively (Patch et al., 2003). The plate was then incubated at 37° C. for 1 h and centrifuged at 3500 rpm for 10 min. The supernatant (30 μL) was diluted with 100 μL of 1×PBS and absorption was detected by measuring the optical density at 360 nm by Biotek Synergy HT microtiter plate reader. % hemolysis was determined by the following equation: % hemolysis=(Abssample−AbsPBS)/(AbsTriton−AbsPBS)×100 H50 is the concentration of γ-AApeptide amphiphiles at which 50% hemolysis was observed. The highest concentration tested in the hemolytic assay was 500 μg/ml. 7. Fluorescence Microscopy
The sequences shown in FIG. 12 were also evaluated via hemolytic assays. Freshly drawn human red blood cells (hRBC's) with additive K2 EDTA (spray-dried) were washed with PBS buffer several times and centrifuged at 1000 g for 10 min until a clear supernatant was observed. The hRBC's were resuspended in 1×PBS to get a 5% v/v suspension. Two-fold serial dilutions of lipidated γ-AApeptides dissolved in 1×PBS from 1 mg/ml through 6.3 μg/ml were added to sterile 96-well plates to make up a total volume of 50 μL in each well. Then 50 μL of 5% v/v hRBC solution was added to make up a total volume of 100 μL in each well. The 0% hemolysis point and 100% hemolysis point were determined in 1×PBS and 0.2% Triton-X-100, respectively (Patch et al., 2003). The plate was then incubated at 37° C. for 1 h and centrifuged at 3500 rpm for 10 min. The supernatant (30 μL) was diluted with 100 μL of 1×PBS and absorption was detected by measuring the optical density at 360 nm with a Biotek Synergy HT microtiter plate reader. % hemolysis was determined by the following equation: % hemolysis=(Abs sample−Abs PBS)/(Abs Triton−Abs PBS)×100

[2] = test system: E. coli (JM109)
[3] = test system: K. pneumoniae (ATCC 13383)
[4] = test system: B. subtilis (BR151)
[5] = test system: multi-drug resistant S. epidermidis (RP62A); settings: for MIC, Gram positive S. epidermidis: Table 7
[6] = test system: vancomycin-resistant E. faecalis (ATCC 700802); settings: for MIC, Gram positive E. faecalis: Table 7
[7] = test system: methicillin-resistant S. aureus (ATCC 33592); settings: for MIC, Gram positive S. aureus: Table 7
[8] = test system: methicillin-resistant S. aureus (MRSA, USA100 lineage)
[9] = test system: B. anthracis
[10] = test system: C. albicans (ATCC 10231)
[11] = test system: Gram-positive and Gram-negative bacteria and the fungus C. albicans; assay: Antimicrobial assays, whole panel (statements in words); format: cell-based
[12] = test system: multi-drug resistant P. aeruginosa ATCC 27853; settings: ATCC 27853
[13] = test system: S. aureus ATCC 33592; format: cell-based; settings: serial passage at half-MIC
[14] = test system: human red blood cells (hRBC's); settings: cited from earlier work

Compound: NCCCC[C@@H](C(N)=O)N(CCNC(=O)[C@H](CCCCN)N(CCNC(=O)[C@H](CCCCN)N(CCNC(=O)[C@H](CCCCN)N(CCNC(=O)[C@H](CCCCN)N(CCNC(=O)[C@H](CCCCN)N(CCNC(=O)[C@H](CCCCN)N(CCN)C(=O)CCc1ccccc1)C(=O)CCc1ccccc1)C(=O)CCc1ccccc1)C(=O)CCc1ccccc1)C(=O)CCc1ccccc1)C(=O)CCc1ccccc1)C(=O)CCc1ccccc1 [α1, reference compound]
- Hemolysis (H50) ([1]; Table 1, concentration at which 50% hemolysis was observed): >500 µg/mL
- MIC, E. coli [2]: 4.5 µg/mL (≈ 2.1 µM)
- MIC, K. pneumoniae (causing pneumonia) [3]: >100 µg/mL
- MIC, B. subtilis [4]: 2 µg/mL (≈ 0.934 µM)
- MIC, S. epidermidis (multi-drug resistant) ([5]; multi-drug resistant (RP62A)): 10 µg/mL (≈ 4.67 µM)
- MIC, E. faecalis (vancomycin-resistant) ([6]; ATCC 700802): 75 µg/mL (≈ 35 µM)
- MIC, S. aureus (methicillin-resistant) ([7]; ATCC 33592): 75 µg/mL (≈ 35 µM)
- MIC, MRSA USA100 (leading hospital-associated strain) ([8]; USA100): >100 µg/mL
- MIC, B. anthracis (lethal bioweapon) [9]: >100 µg/mL
- MIC, Fungi C. albicans ([10]; ATCC 10231, 48 h): 20 to 30 µg/mL

Compound: CCCCCCCCCCCC(=O)N[C@@H](CCCCN)CN(CC(N)=O)C(=O)CCCN [Sequence 1]
- Hemolysis HC10 [1]: 400 µg/mL
- Hemolysis HC50 [1]: > 500 µg/mL
- antimicrobial activity against the tested panel, in words [11]: not active toward any microorganism
- MIC, Gram negative E. coli [2]: >50 µg/mL
- MIC, Gram negative K. pneumoniae [3]: >50 µg/mL
- MIC, Gram negative P. aeruginosa [12]: >50 µg/mL
- MIC, Gram positive B. subtilis [4]: >50 µg/mL
- MIC, Gram positive S. epidermidis [5]: >50 µg/mL
- MIC, Gram positive E. faecalis [6]: >50 µg/mL
- MIC, Gram positive S. aureus [7]: >50 µg/mL
- MIC, Fungi, C. albicans ([10]; ATCC 10231): >50 µg/mL

Compound: CCn1cc(C(=O)O)c(=O)c2cc(F)c(N3CCNCC3)cc21 [norfloxacin, reference compound]
- passages after which the MIC started to increase [13]: three

Compound: KFKFKFKFKFKFKF-NH2 [pl, reference compound]
- Hemolysis (H50) [1]: >500 µg/mL
- antimicrobial activity against the tested panel, in words [11]: does not show any antimicrobial activity at all
- MIC, E. coli [2]: >100 µg/mL
- MIC, K. pneumoniae (causing pneumonia) [3]: >100 µg/mL
- MIC, B. subtilis [4]: >100 µg/mL
- MIC, S. epidermidis (multi-drug resistant) ([5]; Table 1): >100 µg/mL
- MIC, E. faecalis (vancomycin-resistant) ([6]; Table 1): >100 µg/mL
- MIC, S. aureus (methicillin-resistant) ([7]; Table 1): >100 µg/mL
- MIC, Fungi C. albicans ([10]; ATCC 10231, 48 h): >100 µg/mL

Compound: NCCCC[C@H](N)CN(CC(=O)N[C@@H](CCCCN)CN(CC(=O)N[C@@H](CCCCN)CN(CC(=O)N[C@@H](CCCCN)CN(CC(=O)N[C@@H](CCCCN)CN(CC(=O)N[C@@H](CCCCN)CN(CC(=O)N[C@@H](CCCCN)CN(CC(N)=O)C(=O)CCc1ccccc1)C(=O)CCc1ccccc1)C(=O)CCc1ccccc1)C(=O)CCc1ccccc1)C(=O)CCc1ccccc1)C(=O)CCc1ccccc1)C(=O)CCc1ccccc1 [γ3]
- Hemolysis (H50) [1]: >500 µg/mL
- MIC, E. coli [2]: 2.5 to 5 µg/mL
- MIC, K. pneumoniae (causing pneumonia) [3]: >100 µg/mL
- MIC, B. subtilis [4]: 2.5 µg/mL (≈ 1.17 µM)
- MIC, S. epidermidis (multi-drug resistant) ([5]; Table 1): 6.25 to 12.5 µg/mL
- MIC, E. faecalis (vancomycin-resistant) ([6]; Table 1): 12.5 to 25 µg/mL
- MIC, S. aureus (methicillin-resistant) ([7]; Table 1): 12.5 to 25 µg/mL
- MIC, B. anthracis (lethal bioweapon) ([9]; Table 1): 25 to 50 µg/mL
- MIC, Fungi C. albicans ([10]; ATCC 10231, 48 h): 12.5 to 25 µg/mL

Compound: CC(C)C[C@@H](CN(CC(=O)N[C@@H](CCCCN)CN(CC(=O)N[C@@H](CCCCN)CN(CC(=O)N[C@@H](CCCCN)CN(CC(N)=O)C(=O)CCc1ccccc1)C(=O)CCc1ccccc1)C(=O)CCc1ccccc1)C(=O)CCc1ccccc1)NC(=O)CN(C[C@H](CCCCN)NC(=O)CN(C[C@H](CCCCN)NC(=O)CN(C[C@@H](N)CCCCN)C(=O)CCc1ccccc1)C(=O)CCc1ccccc1)C(=O)CCc1ccccc1 [γ4]
- Hemolysis (H50) [1]: >500 µg/mL
- MIC, E. coli [2]: 2.5 to 5 µg/mL
- MIC, B. subtilis [4]: 2.5 µg/mL (≈ 1.18 µM)
- MIC, S. epidermidis (multi-drug resistant) ([5]; Table 1): 3.1 to 6.25 µg/mL
- MIC, E. faecalis (vancomycin-resistant) ([6]; Table 1): 12.5 to 25 µg/mL
- MIC, S. aureus (methicillin-resistant) ([7]; Table 1): 3.1 to 6.25 µg/mL
- MIC, B. anthracis (lethal bioweapon) ([9]; Table 1): 25 to 50 µg/mL
- MIC, Fungi C. albicans ([10]; ATCC 10231, 48 h): 12.5 to 25 µg/mL

Compound: GIGKFLKKAKKFGKAFVKILKK-NH2 [Pexiganan, pexiganan]
- Hemolysis (H50) [14]: >500 µg/mL
- Hemolysis H10 [14]: 181 µg/mL
- Hemolysis H50 [14]: 495 µg/mL

Compound: CC(C)C[C@@H](CN(CC(=O)N[C@@H](CCCCN)CN(CC(N)=O)C(=O)CCc1ccccc1)C(=O)CCc1ccccc1)NC(=O)CN(C[C@H](CCCCN)NC(=O)CN(C[C@H](CCCCN)NC(=O)CN(C[C@H](CC(C)C)NC(=O)CN(C[C@H](CCCCN)NC(=O)CN(C[C@@H](N)CCCCN)C(=O)CCc1ccccc1)C(=O)CCc1ccccc1)C(=O)CCc1ccccc1)C(=O)CCc1ccccc1)C(=O)CCc1ccccc1 [γ5]
- Hemolysis (H50) [1]: 300 µg/mL
- Hemolysis H10 [1]: 75 µg/mL
- Hemolysis H50 [1]: 300 µg/mL
- Hemolysis HC10 [1]: 75 µg/mL
- Hemolysis HC50 [1]: 300 µg/mL
- MIC, E. coli [2]: 2.5 to 5 µg/mL
- MIC, Gram negative E. coli [2]: 3 µg/mL (≈ 1.42 µM)
- MIC, Gram negative K. pneumoniae [3]: 5 µg/mL (≈ 2.37 µM)
- MIC, K. pneumoniae (causing pneumonia) [3]: 5 µg/mL (≈ 2.37 µM)
- MIC, Gram negative P. aeruginosa [12]: >50 µg/mL
- MIC, P. aeruginosa [12]: 25 to 50 µg/mL
- MIC, B. subtilis [4]: 2 µg/mL (≈ 0.947 µM)
- MIC, Gram positive B. subtilis [4]: 2 µg/mL (≈ 0.947 µM)
- MIC, S. epidermidis (multi-drug resistant) ([5]; Table 1): 3.1 to 6.25 µg/mL
- MIC, S. epidermidis (multi-drug resistant) ([5]; Table 3): 3.1 to 6.3 µg/mL
- MIC, Gram positive S. epidermidis [5]: 5 µg/mL (≈ 2.37 µM)
- MIC, E. faecalis (vancomycin-resistant) ([6]; Table 1): 3.1 to 6.25 µg/mL
- MIC, E. faecalis (vancomycin-resistant) ([6]; Table 3): 3.1 to 6.3 µg/mL
- MIC, Gram positive E. faecalis [6]: 5 µg/mL (≈ 2.37 µM)
- MIC, S. aureus (methicillin-resistant) ([7]; Table 1): 5 µg/mL (≈ 2.37 µM)
- MIC, Gram positive S. aureus [7]: 5 µg/mL (≈ 2.37 µM)
- MIC, MRSA USA100 (leading hospital-associated strain) ([8]; Table 1): 5 µg/mL (≈ 2.37 µM)
- MIC, MRSA USA100 ([8]; Table 3): 5 µg/mL (≈ 2.37 µM)
- MIC, B. anthracis (lethal bioweapon) ([9]; Table 1): 5 µg/mL (≈ 2.37 µM)
- MIC, Fungi C. albicans ([10]; ATCC 10231): 5 to 10 µg/mL
- MIC, Fungi, C. albicans ([10]; ATCC 10231): 8 µg/mL (≈ 3.79 µM)
- MIC, Fungi C. albicans ([10]; ATCC 10231, 48 h): 5 to 10 µg/mL

Compound: CCCCCCCCCCCCCCCC(=O)N[C@@H](C)CN(CC(=O)N[C@@H](C)CN(CC(=O)N[C@@H](Cc1ccccc1)CN(CC(=O)N[C@@H](Cc1ccccc1)CN(CC(=O)N[C@@H](Cc1ccccc1)CN(CC(N)=O)C(=O)CC(=O)O)C(=O)CC(=O)O)C(=O)CC(=O)O)C(C)=O)C(C)=O [Sequence 8]
- Hemolysis HC10 [1]: 200 µg/mL
- Hemolysis HC50 [1]: > 500 µg/mL
- MIC, Gram negative E. coli [2]: >100 µg/mL
- MIC, Gram negative K. pneumoniae [3]: >100 µg/mL
- MIC, Gram negative P. aeruginosa [12]: >100 µg/mL
- MIC, Gram positive B. subtilis [4]: >100 µg/mL
- MIC, Gram positive S. epidermidis [5]: >100 µg/mL
- MIC, Gram positive E. faecalis [6]: >100 µg/mL
- MIC, Gram positive S. aureus [7]: >100 µg/mL
- MIC, Fungi, C. albicans ([10]; ATCC 10231): >100 µg/mL

Compound: CCCCCCCC/C=C\CCCCCCCC(=O)N[C@@H](CCCCN)CN(CC(=O)N[C@@H](CCCCN)CN(CC(N)=O)C(=O)CCCN)C(=O)CCCN [Sequence 12]
- Hemolysis HC10 [1]: 250 µg/mL
- Hemolysis HC50 [1]: > 500 µg/mL
- MIC, Gram negative E. coli [2]: 10 µg/mL (≈ 12.6 µM)
- MIC, Gram negative K. pneumoniae [3]: 15 µg/mL (≈ 18.9 µM)
- MIC, Gram negative P. aeruginosa [12]: 3 µg/mL (≈ 3.78 µM)
- MIC, Gram positive B. subtilis [4]: 2.5 µg/mL (≈ 3.15 µM)
- MIC, Gram positive S. epidermidis [5]: 4 µg/mL (≈ 5.04 µM)
- MIC, Gram positive E. faecalis [6]: 5 µg/mL (≈ 6.3 µM)
- MIC, Gram positive S. aureus [7]: 5 µg/mL (≈ 6.3 µM)
- MIC, Fungi, C. albicans ([10]; ATCC 10231): 2 µg/mL (≈ 2.52 µM)
